Tests used:
Format in all cases: biochemical
Human recombinant HDAC4 = Human recombinant HDAC4 (Homo sapiens (Human), UniProt P56524); assay: Test 2: HDAC4 assay (fluorogenic substrate, 5 μM acetyl-Gly-Ala-Lys(ε-trifluoroacetyl)-AMC); details: Test 2 (values without asterisk)
Description: Test 2: HDAC4 Assay Description
(§1) Control wells with HDAC4 only (positive control) and without HDAC4 (negative control) were included on the microplate. Bovine trypsin (4.5 μl of a 300 nM solution) was added and the plate incubated for additional 15 minutes at room temperature. The plate was placed in a fluorescence microplate reader, and read at an excitation wavelength of 360 nm and an emission wavelength of 450 nm with a 10 nm bandpath. Fluorescence values for all wells containing HDAC4 (positive control and wells with test compound) were corrected by subtracting negative control fluorescence values, and IC50 values were calculated by fitting the dose-response curves to a 4-parameter logistic function.

[1] = molecular target: Human recombinant full length HDAC6 (Homo sapiens (Human), UniProt Q9UBN7); assay: Test 4: HDAC6 assay; details: Test 4; substrate 5 μM acetyl-Gly-Ala-Lys(acetyl)-AMC
Chain of Human recombinant full length HDAC6 (Q9UBN7 whole entry): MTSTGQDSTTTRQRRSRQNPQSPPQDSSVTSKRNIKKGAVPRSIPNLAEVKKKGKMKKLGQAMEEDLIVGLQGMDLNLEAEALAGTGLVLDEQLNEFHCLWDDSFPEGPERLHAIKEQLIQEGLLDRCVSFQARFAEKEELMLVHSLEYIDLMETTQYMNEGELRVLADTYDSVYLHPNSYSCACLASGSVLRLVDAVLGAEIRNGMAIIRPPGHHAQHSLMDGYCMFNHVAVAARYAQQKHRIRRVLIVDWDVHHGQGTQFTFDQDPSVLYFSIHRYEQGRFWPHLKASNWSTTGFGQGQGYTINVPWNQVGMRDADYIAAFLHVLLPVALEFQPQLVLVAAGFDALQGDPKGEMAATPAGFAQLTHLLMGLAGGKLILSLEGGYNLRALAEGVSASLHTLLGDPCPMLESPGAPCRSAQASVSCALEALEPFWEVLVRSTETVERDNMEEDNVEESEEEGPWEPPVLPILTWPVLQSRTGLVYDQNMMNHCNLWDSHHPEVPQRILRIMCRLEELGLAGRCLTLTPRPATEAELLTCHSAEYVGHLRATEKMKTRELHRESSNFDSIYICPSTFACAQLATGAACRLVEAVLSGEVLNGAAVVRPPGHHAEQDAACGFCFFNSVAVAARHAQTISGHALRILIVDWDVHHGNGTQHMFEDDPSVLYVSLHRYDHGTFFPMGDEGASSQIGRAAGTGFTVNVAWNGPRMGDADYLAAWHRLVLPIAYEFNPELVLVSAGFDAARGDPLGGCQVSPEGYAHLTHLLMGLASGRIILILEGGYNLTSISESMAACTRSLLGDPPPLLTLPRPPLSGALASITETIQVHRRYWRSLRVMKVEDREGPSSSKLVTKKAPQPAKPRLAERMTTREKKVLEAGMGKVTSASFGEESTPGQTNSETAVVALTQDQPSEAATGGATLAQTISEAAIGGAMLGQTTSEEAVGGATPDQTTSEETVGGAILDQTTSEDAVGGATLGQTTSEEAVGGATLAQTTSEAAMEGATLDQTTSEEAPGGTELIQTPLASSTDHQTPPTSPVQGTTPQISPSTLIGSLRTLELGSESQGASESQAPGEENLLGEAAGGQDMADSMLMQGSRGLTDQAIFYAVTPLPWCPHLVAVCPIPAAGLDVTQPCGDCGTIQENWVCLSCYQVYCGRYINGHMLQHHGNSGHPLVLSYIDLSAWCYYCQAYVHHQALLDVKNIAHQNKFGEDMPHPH
Description: as §1
Test 4: HDAC6 Assay Description
A similar assay procedure as described in Test 2 was used for HDAC6. Human recombinant full length HDAC6 expressed in a baculovirus expression system was purchased from BPS BioSciences (San Diego, Calif., U.S.A.). The substrate used in the […] assay was 5 μM of acetyl-Gly-Ala-Lys(acetyl)-AMC.

[2] = molecular target: Human recombinant full length HDAC1 (Homo sapiens (Human), UniProt Q13547); assay: Test 3: HDAC1 assay; details: substrate 5 μM acetyl-Gly-Ala-Lys(acetyl)-AMC
Chain of Human recombinant full length HDAC1 (Q13547 whole entry): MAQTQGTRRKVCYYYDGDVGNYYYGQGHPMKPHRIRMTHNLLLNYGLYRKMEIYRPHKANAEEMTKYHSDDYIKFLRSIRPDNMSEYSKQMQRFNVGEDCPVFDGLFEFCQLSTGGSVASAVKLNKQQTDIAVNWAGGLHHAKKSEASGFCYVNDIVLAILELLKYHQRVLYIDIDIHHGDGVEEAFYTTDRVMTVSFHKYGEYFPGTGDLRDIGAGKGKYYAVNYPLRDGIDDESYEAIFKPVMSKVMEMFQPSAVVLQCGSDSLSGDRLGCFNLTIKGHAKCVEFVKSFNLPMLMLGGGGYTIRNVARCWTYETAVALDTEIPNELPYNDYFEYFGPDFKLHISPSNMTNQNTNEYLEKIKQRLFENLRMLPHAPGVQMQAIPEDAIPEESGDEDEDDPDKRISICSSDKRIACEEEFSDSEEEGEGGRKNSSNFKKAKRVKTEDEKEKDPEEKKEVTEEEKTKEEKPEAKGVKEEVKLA
Description: as §1
Test 3: HDAC1 Assay Description
A similar assay procedure as described in Test 2 was used for HDAC1. Human recombinant full length HDAC1 expressed in a baculovirus expression system was purchased from BPS BioSciences (San Diego, Calif., U.S.A.). The substrate used in the […] assay was 5 μM of acetyl-Gly-Ala-Lys(acetyl)-AMC.

Chain of Human recombinant HDAC4 (P56524 2-1084): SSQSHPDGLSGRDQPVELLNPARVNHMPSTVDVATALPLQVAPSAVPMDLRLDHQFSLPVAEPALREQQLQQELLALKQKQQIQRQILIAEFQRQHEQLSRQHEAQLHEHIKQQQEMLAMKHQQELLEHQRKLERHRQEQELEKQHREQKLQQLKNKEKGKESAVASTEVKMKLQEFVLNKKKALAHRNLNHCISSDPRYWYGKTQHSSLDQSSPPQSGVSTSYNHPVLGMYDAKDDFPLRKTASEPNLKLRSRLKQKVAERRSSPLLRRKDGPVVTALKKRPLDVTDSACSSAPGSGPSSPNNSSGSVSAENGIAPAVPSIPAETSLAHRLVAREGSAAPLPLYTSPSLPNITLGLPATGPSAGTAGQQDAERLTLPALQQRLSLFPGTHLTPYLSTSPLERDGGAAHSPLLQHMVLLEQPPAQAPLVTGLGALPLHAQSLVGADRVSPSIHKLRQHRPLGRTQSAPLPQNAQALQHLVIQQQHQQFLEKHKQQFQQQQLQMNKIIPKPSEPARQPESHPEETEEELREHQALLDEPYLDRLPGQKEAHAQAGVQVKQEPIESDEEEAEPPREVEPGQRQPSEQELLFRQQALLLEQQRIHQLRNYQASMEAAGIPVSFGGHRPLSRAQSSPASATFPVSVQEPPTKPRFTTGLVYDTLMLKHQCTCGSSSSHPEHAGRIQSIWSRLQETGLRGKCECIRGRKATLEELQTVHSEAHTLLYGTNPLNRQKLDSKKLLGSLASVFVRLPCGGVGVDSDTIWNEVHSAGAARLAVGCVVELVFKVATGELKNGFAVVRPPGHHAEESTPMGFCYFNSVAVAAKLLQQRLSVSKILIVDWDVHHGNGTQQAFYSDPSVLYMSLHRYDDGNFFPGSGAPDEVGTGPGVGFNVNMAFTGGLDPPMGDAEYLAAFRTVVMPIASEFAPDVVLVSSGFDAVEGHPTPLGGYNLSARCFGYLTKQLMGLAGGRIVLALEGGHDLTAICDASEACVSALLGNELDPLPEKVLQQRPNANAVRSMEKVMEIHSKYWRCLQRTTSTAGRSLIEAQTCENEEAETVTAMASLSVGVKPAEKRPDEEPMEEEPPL

IC50 (Human recombinant HDAC4) [µM]	IC50 [1] [µM]	IC50 [2] [µM]	Structure (SMILES)
2.7	> 10	> 10	CN1CCN(C(=O)c2ccc(-c3noc(C(F)(F)F)n3)cc2)CC1 [Example 36, (4-methylpiperazin-1-yl)(4-(5-(trifluoromethyl)-1,2,4-oxadiazol-3-yl)phenvyl)methanone]
0.34	> 10	> 10	CN(C)CCN(C)C(=O)c1ccc(-c2noc(C(F)(F)F)n2)cc1 [Example 37, N-(2-(dimethylamino)ethyl)-N-methyl-4-(5-(trifluoromethyl)-1,2,4-oxadiazol-3-yl)benzamide]
0.3	3.9	> 10	CN1CCC(NC(=O)c2ccc(-c3noc(C(F)(F)F)n3)cc2)CC1 [Example 38, N-(1-methylpiperidin-4-yl)-4-(5-(trifluoromethyl)-1,2,4-oxadiazol-3-yl)benzamide]
1.2	> 10	> 10	CN(C)C1CCN(C(=O)c2ccc(-c3noc(C(F)(F)F)n3)cc2)CC1 [Example 39, (4-(dimethylamino)piperidin-1-yl)(4-(5-(trifluoromethyl)-1,2,4-oxadiazol-3-yl)phenyl)methanone]
0.46	4.6	> 10	O=C(NCCCn1ccnc1)c1ccc(-c2noc(C(F)(F)F)n2)cc1 [Example 40, N-(3-(1 H-imidazol-1-yl)propyl)-4-(5-(trifluoromethyl)-1,2,4-oxadiazol-3-yl)benzamide]
4.2	> 10	> 10	O=C(c1ccc(-c2noc(C(F)(F)F)n2)cc1)N1CCN(c2ccccc2)CC1 [Example 42, (4-phenylpiperazin-1-yl)(4-(5-(trifluoromethyl)-1,2,4-oxadiazol-3-yl)phenyl)methanone]
0.29	> 10	> 10	O=C(c1ccc(-c2noc(C(F)(F)F)n2)cc1)N1CCC(Cc2ccccc2)CC1 [Example 43, (4-benzylpiperidin-1-yl)(4-(5-(trifluoromethyl)-1,2,4-oxadiazol-3-yl)phenvyl)methanone]
0.38	5.7	> 10	O=C(NCc1ccc(CN2CCOCC2)cc1)c1ccc(-c2noc(C(F)(F)F)n2)cc1 [Example 44, N-(4-(morpholinomethyl)benzyl)-4-(5-(trifluoromethyl)-1,2,4-oxadiazol-3-yl)benzamide]
4.2	> 10	> 10	O=C(NCCc1ccccc1)c1ccc(-c2noc(C(F)(F)F)n2)cc1 [Example 45, N-phenethyl-4-(5-(trifluoromethyl)-1,2,4-oxadiazol-3-yl)benzamide]
0.78	3.3	> 10	O=C(NCc1ccccc1)c1ccc(-c2noc(C(F)(F)F)n2)cc1 [Example 46, N-benzyl-4-(5-(trifluoromethyl)-1,2,4-oxadiazol-3-yl)benzamide]
0.054	2.1	> 10	O=C(Nc1ccncc1)c1ccc(-c2noc(C(F)(F)F)n2)cc1 [Example 47, N-(ppyridin-4-yl)-4-(5-(trifluoromethyl)-1,2,4-oxadiazol-3-yl)benzamide]
0.14	4.8	> 10	O=C(Nc1cccnc1)c1ccc(-c2noc(C(F)(F)F)n2)cc1 [Example 48, N-(ppyridin-3-yl)-4-(5-(trifluoromethyl)-1,2,4-oxadiazol-3-yl)benzamide]
0.99	> 10	> 10	CN1CCC(CNC(=O)c2ccc(-c3noc(C(F)(F)F)n3)cc2)CC1 [Example 49, N-((1-methylpiperidin-4-yl)methyl)-4-(5-(trifluoromethyl)-1,2,4-oxadiazol-3-yl)benzamide]
0.62	7.2	> 10	C[C@@H](CO)NC(=O)c1ccc(-c2noc(C(F)(F)F)n2)cc1 [Example 50, (S)—N-(1-hydroxyypropan-2-yl)-4-(5-(trifluoromethyl)-1,2,4-oxadiazol-3-yl)benzamide]
0.09	10	> 10	CC(CNC(=O)c1ccc(-c2noc(C(F)(F)F)n2)cc1)N(C)C (stereo not drawn) [Example 51, N-(2-(dimethylamino)propyl)-4-(5-(trifluoromethyl)-1,2,4-oxadiazol-3-yl)benzamide]
3.2	> 10	> 10	CN(C)C(=O)CNC(=O)c1ccc(-c2noc(C(F)(F)F)n2)cc1 [Example 52, N-(2-(dimethylamino)-2-oxoethyl)-4-(5-(trifluoromethyl)-1,2,4-oxadiazol-3-yl)benzamide]
0.026	> 10	> 10	CC(CN(C)C)NC(=O)c1ccc(-c2noc(C(F)(F)F)n2)cc1 (stereo not drawn) [Example 53, N-(1-(dimethylamino)propan-2-yl)-4-(5-(trifluoromethyl)-1,2,4-oxadiazol-3-yl)benzamide]
2	> 10	> 10	O=C(c1ccc(-c2noc(C(F)(F)F)n2)cc1)N1CCC(O)C1 (stereo not drawn) [Example 54, (3-hydroxypyrrolidin-1-yl)(4-(5-(trifluoromethyl)-1,2,4-oxadiazol-3-yl)phenvyl)methanone]
2.8	> 10	> 10	CC(C)(C)OC(=O)N1CCN(C(=O)c2ccc(-c3noc(C(F)(F)F)n3)cc2)CC1 [Example 55, Tert-butyl 4-(4-(5-(trifluoromethyl)-1,2,4-oxadiazol-3-yl)benzoyl)piperazine-1-carboxylate]
0.55	6.8	> 10	CCC(CO)NC(=O)c1ccc(-c2noc(C(F)(F)F)n2)cc1 (stereo not drawn) [Example 56, N-(1-tetrahydroxy-2 H-butan-2-yl)-4-(5-(trifluoromethyl)-1,2,4-oxadiazol-3-yl)benzamide]
0.52	6.5	> 10	O=C(NC1CCOCC1)c1ccc(-c2noc(C(F)(F)F)n2)cc1 [Example 57, N-(tetrahydro-2H-pyran-4-yl)-4-(5-(trifluoromethyl)-1,2,4-oxadiazol-3-yl)benzamide]
0.65	5.5	> 10	CC(C)CC(CO)NC(=O)c1ccc(-c2noc(C(F)(F)F)n2)cc1 (stereo not drawn) [Example 58, N-(1-hydroxy-4-methylpentan-2-yl)-4-(5-(trifluoromethyl)-1,2,4-oxadiazol-3-yl)benzamide]
1.4	> 10	> 10	CC(C)(C)OC(=O)N1CCC(NC(=O)c2ccc(-c3noc(C(F)(F)F)n3)cc2)CC1 [Example 59, 4-[4-(5-trifluoromethyl-[1,2,4]oxadiazol-3-yl)-benzoylamino]-piperidine-1-carboxylic acid tert-butyl ester]
2.5	2.2	> 10	CC(C)(C)OC(=O)NC1CCCCC1NC(=O)c1ccc(-c2noc(C(F)(F)F)n2)cc1 (stereo not drawn) [Example 60, tert-butyl (2-(4-(5-(trifluoromethyl)-1,2,4-oxadiazol-3-yl)benzamido)cyclohexyl)carbamate]
0.79	7.1	> 10	O=C(NC1CCCCC1O)c1ccc(-c2noc(C(F)(F)F)n2)cc1 (stereo not drawn) [Example 61, N-(2-hydroxycyclohexyl)-4-(5-(trifluoromethyl)-1,2,4-oxadiazol-3-yl)benzamide]
